Entries after “also recorded” stand apart in the source; their conditions may differ.
Experiments:
[1] = tested on: fungal infected fingernail (onychomycosis); assay: Topical treatment of a fungal infected fingernail in a patient; format: in vivo, human
Excerpt: The copper sulfate solution was applied to their fingernails for approximately thirty minutes and then allowed to air dry. Excess copper sulfate powder was removed by washing two-three times with water. […] Monthly, the copper sulfate solution was applied as given above to the infected fingernail and to all fingernails on the same hand.
The bandage was applied to the infected nail and secured in place. Care was given to ensure that the solution soaked into the crevice along the edge of the nail bed and cuticle. […] The bandage was worn for two days and then replaced with a clean dry bandage to protect the nail from snagging. The treatment was repeated on Day 31 and again on Day 45; no further treatments were given.

fungal infected toe nail = assay: Topical treatment of a fungal infected toe nail in a patient; format: in vivo, human; conditions: aqueous 10% (w/v) solution applied approximately thirty minutes, air dried, washed with water, Example 2 repeated monthly
Excerpt: As the treated nail grew, healthy nail tissue appeared at the base of the nail bed while the infected portion of the nail was pushed off the nail bed and periodically trimmed away. […] A patient diagnosed as having a fungal infected toe nail began treatment by applying with a cotton swab an aqueous 10% (w/v) copper(II)sulfate pentahydrate solution to the infected nail as well as to all nails on the same foot. […] As the treated nail grew, healthy nail tissue appeared at the base of the nail bed while the infected portion of the nail was pushed off the nail bed and periodically trimmed away. […] The infected portion of the patient's nail continued to have a bluish color.

SMILES	Nail examination after treatment ([1]; person, right index fingernail, 10% aqueous solution with trace of detergent on bandage worn two days, Day 1, 31, 45, examined Day 132)	Outcome of toe nail treatment (spread of fungal infection, nail condition) (fungal infected toe nail)	Outcome of fingernail treatment (spread of fungal infection, nail condition) ([1]; patient, aqueous 10% (w/v) solution applied approximately thirty minutes, washed, repeated monthly)
O=S(=O)([O-])[O-].[Cu+2] [copper sulfate]	New pink nail growth was present from the cuticle to a point midway along the nail		
O.O.O.O.O.O=S(=O)([O-])[O-].[Cu+2] [copper(II)sulfate pentahydrate]		the fungal infection did not spread to healthy nail tissue; also recorded: resulting in a normal healthy nail	resulting in a normal healthy nail

From patent publication US20040001791A1, “Composition, method of use, and devices for the treatment of onychomycosis” (priority 2000, published 2004)
